Measurements published in ChEMBL document CHEMBL1201862, “PubChem BioAssay data set” (2004).
Calls of active or inactive are those of the source.

What was measured:
[1] = target: Aryl hydrocarbon receptor (Homo sapiens, UniProt P35869); experiment: Luminescence-based cell-based high throughput dose response assay for activators of the Aryl Hydrocarbon Receptor (AHR). [Related pubchem assays: 2796 (Primary screen (AHR activators in singlicate)), 2845 (Confirmation screen (AHR activators in triplicate)), 434939 (Counterscreen (PXR activators in triplicate)), 2804 (Summary (AHR activators))]; type: ADME
Aryl hydrocarbon receptor, sequence (P35869 whole entry): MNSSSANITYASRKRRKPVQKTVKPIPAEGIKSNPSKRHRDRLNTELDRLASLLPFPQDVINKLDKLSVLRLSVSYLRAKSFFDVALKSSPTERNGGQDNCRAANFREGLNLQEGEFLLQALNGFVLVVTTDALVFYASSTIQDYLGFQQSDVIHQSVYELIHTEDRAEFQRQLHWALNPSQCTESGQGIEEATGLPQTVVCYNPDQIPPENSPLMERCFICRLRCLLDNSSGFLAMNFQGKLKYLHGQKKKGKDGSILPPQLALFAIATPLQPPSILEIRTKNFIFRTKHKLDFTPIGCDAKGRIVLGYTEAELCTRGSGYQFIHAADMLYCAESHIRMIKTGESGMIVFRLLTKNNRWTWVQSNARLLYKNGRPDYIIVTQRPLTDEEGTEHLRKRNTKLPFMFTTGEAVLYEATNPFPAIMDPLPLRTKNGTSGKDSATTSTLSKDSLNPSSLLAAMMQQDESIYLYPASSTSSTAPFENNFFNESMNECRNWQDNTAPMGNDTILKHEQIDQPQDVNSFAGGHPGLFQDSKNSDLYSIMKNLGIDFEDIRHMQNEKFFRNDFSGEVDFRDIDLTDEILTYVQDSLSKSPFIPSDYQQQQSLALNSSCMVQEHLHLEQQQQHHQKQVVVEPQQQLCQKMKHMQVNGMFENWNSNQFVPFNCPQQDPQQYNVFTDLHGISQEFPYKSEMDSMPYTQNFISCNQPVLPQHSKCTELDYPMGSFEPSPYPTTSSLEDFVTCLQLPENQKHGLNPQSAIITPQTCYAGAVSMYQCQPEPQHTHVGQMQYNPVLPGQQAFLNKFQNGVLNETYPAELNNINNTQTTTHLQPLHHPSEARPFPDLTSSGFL

[2] = target: Fructose-bisphosphate aldolase (Mycobacterium tuberculosis, UniProt P9WQA3); experiment: Fluorescence-based biochemical high throughput dose response assay for inhibitors of the fructose-bisphosphate aldolase (FBA) of M. tuberculosis.; type: functional
Fructose-bisphosphate aldolase, sequence (P9WQA3 whole entry): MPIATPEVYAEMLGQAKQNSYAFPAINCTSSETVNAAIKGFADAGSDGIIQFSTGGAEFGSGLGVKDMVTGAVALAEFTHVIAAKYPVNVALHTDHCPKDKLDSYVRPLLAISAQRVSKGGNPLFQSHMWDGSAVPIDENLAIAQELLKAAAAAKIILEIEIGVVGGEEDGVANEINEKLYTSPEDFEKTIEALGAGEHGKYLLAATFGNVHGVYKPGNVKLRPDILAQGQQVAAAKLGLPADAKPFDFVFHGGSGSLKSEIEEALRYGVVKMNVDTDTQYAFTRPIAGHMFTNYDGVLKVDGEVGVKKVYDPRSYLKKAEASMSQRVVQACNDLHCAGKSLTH

[3] = A cytotoxicity screen of small molecule inhibitors of the PhoP region in Salmonella typhi identified in the primary screen. [Related pubchem assays: 1850, 1864, 1985 ]; type: functional
[4] = target: Serine/threonine-protein phosphatase PP1-alpha catalytic subunit (Homo sapiens, UniProt P62136); experiment: inhibition of protein phosphatase 1 activity – biochemical, fluorescence, dose response (AID 2394)
Serine/threonine-protein phosphatase PP1-alpha catalytic subunit, sequence (P62136 whole entry): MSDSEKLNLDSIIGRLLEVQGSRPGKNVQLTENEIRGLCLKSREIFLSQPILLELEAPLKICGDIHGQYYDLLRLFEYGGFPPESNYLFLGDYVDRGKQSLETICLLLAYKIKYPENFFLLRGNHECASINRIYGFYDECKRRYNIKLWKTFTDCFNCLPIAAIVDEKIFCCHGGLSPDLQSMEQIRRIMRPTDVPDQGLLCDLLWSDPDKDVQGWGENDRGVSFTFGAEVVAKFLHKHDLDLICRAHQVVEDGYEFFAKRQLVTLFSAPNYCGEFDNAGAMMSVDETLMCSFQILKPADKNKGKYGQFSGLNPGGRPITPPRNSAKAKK

[5] = target: Serine/threonine-protein phosphatase (Homo sapiens, UniProt Q9BPW0); experiment: inhibition of protein phosphatase 5 activity – biochemical, fluorescence, dose response (AID 2395)
Serine/threonine-protein phosphatase, sequence (Q9BPW0 whole entry): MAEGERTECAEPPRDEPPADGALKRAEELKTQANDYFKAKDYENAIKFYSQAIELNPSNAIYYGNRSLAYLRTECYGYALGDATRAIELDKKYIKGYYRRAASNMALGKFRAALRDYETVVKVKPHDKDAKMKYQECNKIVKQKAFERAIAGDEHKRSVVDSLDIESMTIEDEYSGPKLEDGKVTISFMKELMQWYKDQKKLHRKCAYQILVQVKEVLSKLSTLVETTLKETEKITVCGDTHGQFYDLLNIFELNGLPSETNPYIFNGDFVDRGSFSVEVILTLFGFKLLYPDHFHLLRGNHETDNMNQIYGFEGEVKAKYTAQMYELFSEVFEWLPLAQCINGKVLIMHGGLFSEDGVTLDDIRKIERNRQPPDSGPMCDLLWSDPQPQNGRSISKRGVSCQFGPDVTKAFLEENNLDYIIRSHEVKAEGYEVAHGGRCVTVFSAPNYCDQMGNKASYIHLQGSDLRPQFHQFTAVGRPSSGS

[6] = Luminescence Cell-Based Dose Confirmation HTS to Identify Inhibitors of Platelet Dense Granule Release. [Related pubchem assays: 1663 (Primary HTS), 1678 (Summary of Project)]; type: functional
[7] = Fluorescence Cell-Based Dose Response to Identify Inhibitors of Thrombin Receptor-Activating Peptide SFLLRN-Mediated P-Selectin Induction on Platelets. [Related pubchem assays: 1663 (Primary HTS), 1889 (retest at dose ), 1891 (counterscreen), 1678 (Project Summary)]; type: functional
[8] = target: Luciferin 4-monooxygenase (Photinus pyralis, UniProt P08659); experiment: inhibition of purified Photinus pyralis luciferase – biochemical, luminescence, dose response (AID 1891)
Luciferin 4-monooxygenase, sequence (P08659 whole entry): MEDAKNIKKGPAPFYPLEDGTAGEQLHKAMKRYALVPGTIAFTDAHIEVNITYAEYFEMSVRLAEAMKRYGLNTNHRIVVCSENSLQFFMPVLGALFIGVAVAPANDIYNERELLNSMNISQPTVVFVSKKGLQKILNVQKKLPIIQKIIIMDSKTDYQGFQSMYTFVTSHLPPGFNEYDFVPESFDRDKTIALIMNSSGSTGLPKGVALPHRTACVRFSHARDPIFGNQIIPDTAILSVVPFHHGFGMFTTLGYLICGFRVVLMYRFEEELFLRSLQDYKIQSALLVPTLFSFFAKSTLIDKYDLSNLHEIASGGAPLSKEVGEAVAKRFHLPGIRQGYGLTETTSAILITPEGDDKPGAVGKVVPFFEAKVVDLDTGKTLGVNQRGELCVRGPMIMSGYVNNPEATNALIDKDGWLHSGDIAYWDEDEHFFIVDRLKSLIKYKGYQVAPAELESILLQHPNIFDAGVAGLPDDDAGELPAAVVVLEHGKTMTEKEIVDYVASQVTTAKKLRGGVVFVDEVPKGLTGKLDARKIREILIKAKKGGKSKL

[9] = growth inhibition of yeast DHODH-expressing 3D7 parasites – SYBR Green, dry powder samples, dose response (AID 1159570); type: functional, cell-based;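 also: parasite growth measured after 72 hours of compound exposure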
[10] = growth inhibition of PfATP4-mutant resistant parasites – NITD609-resistant line, SYBR Green, dry powder, dose response (AID 1159571); type: functional, cell-based;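 also: parasites synchronized at ring stage by sorbitol before testing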
[11] = Dd2 parasite growth inhibition in erythrocytes – SYBR Green, dry powder samples, set 9, dose response (AID 1159568); type: functional, cell-based
[12] = toxicity to human HepG2 hepatoma cells – cell-based, plate reader, dry powder samples, cytotoxicity control, dose response (AID 1159569); type: functional;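 also: inhibitor potency with signal falling toward the positive control level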
[13] = Dd2 malaria parasite growth inhibition potency – SYBR Green, dry powder samples, dose response (AID 1159566); type: functional, cell-based;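 also: potency for growth inhibition with lower SYBR green DNA signal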
[14] = P. falciparum Dd2 growth inhibitors, dose response, SYBR Green, cherry-picked samples (AID 1159567); type: functional, cell-based
[15] = Plasmodium falciparum Dd2 Sybr green parasite growth Measured in Cell-Based and Microorganism Combination System Using Plate Reader - 2153-01_Inhibitor_Dose_DryPowder_Activity_Set3.; type: functional
Genome polyprotein = Genome polyprotein (Hepatitis C virus, UniProt Q2Q167); experiment: disruption of hepatitis C core self-association – biochemical, TR-FRET, dose response (AID 2159); set-up: species or system Hepacivirus hominis;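 also: blocks dimerization of HCV core protein measured by TR-FRET between tagged core106 pairs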
Genome polyprotein, sequence (Q2Q167 whole entry): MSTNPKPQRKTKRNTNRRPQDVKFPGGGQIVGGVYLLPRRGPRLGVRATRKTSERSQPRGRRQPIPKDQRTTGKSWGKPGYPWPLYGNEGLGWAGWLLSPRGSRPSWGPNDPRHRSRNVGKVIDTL

[16] = rise of 4N DNA cells, HeLa – IC50, dose response (AID 1117351); type: functional, cell-based
[17] = rise of 2N DNA cells, HeLa – IC50, dose response (AID 1117349); type: functional, cell-based
[18] = target: DNA dC->dU-editing enzyme APOBEC-3G (Homo sapiens, UniProt Q9HC16); experiment: Dose Response confirmation of small molecule APOBEC3G DNA Deaminase Inhibitors via a fluorescence-based single-stranded DNA deaminase assay. [Related pubchem assays (depositor defined):AID493012, AID493028]; type: functional
DNA dC->dU-editing enzyme APOBEC-3G, sequence (Q9HC16 whole entry): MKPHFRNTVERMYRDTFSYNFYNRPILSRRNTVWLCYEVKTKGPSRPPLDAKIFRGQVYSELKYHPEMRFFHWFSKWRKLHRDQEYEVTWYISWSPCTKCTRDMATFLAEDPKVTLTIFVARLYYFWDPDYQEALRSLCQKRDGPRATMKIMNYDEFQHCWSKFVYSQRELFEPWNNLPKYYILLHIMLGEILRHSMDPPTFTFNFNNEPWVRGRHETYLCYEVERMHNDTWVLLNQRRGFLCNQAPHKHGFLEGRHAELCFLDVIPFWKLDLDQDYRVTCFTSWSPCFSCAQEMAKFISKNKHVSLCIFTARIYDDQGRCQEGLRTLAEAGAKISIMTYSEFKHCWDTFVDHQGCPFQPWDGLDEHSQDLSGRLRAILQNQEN

[19] = glucagon-like peptide-1 release potency in STC-1, concentration-response, half-maximal inhibitory concentration in the STC-1 line (AID 1117345); type: functional, cell-based
[20] = Potency on glucagon-like peptide 1 release, dose-response in NCI-H716 cell line, half maximal inhibitory concentration (AID 1117344); type: functional, cell-based

**Q.** Which EC50 [1] does the source give for O=C(Nc1ccon1)c1cnc2sccn2c1=O here?
**A.** 1.85 µM (active)

**Q.** What about the IC50 [2] of the same compound?
**A.** 4.61 µM (active)

**Q.** With COc1ccc(N2CCN(c3cc(C)c4ccc(O)cc4n3)CC2)cc1 as the compound, how does the EC50 [3] read?
**A.** > 50 µM (active)

**Q.** What about the EC50 [1] of the same compound?
**A.** 3.47 µM (active)

**Q.** Which IC50 [4] does the source give for COC(=O)CCC(=O)OC1(C)C(=O)C=C2C=C(C3CC3)N(C3CCCC3)C=C2C1=O (stereo not drawn) here?
**A.** > 67 µM (not active)

**Q.** What about the IC50 [5] of the same compound?
**A.** 11 µM (not active)

**Q.** With COC(=O)CS(=O)(=O)c1ccc2c(c1)CC(=O)N2 as the compound, how does the EC50 [6] read?
**A.** 1.45 µM (active)

**Q.** What about the EC50 [7] of the same compound?
**A.** < 1 µM (active)

**Q.** What about the EC50 [8] of the same compound?
**A.** > 112 µM (not active)

**Q.** Which results are given for CO[C@@H]1CN(C)C(=O)c2ccc(NC(=O)Nc3ccccc3F)cc2OC[C@@H](C)N(CC2CC2)C[C@H]1C?
**A.** AC50 [9]: 6.67 µM (active); AC50 [10]: 0.961 µM (active); AC50 [11]: 0.799 µM (active); AC50 [12]: > 100 µM (inactive); AC50 [13]: 0.0955 µM (active); AC50 [14]: 0.399 µM (active); AC50 [15]: 3.04 µM (active)

**Q.** With C[C@@H]1CCCCO[C@H](CN(C)S(=O)(=O)c2ccc(F)cc2)[C@H](C)CN([C@@H](C)CO)C(=O)c2cc(N(C)C)ccc2O1 as the compound, how does the AC50 [11] read?
**A.** 5.44 µM (active)

**Q.** What does the source list for CCCC(=O)Nc1ccc2c(c1)OC[C@@H](C)N(Cc1ccccc1F)C[C@@H](C)[C@H](OC)CN(C)C2=O?
**A.** AC50 [9]: 4.01 µM (active); AC50 [10]: 1.33 µM (active); AC50 [13]: 0.34 µM (active); AC50 [14]: 0.841 µM (active); AC50 [15]: 1.78 µM (active)

**Q.** What does the source list for O=C1c2c(O)cccc2Cc2cccc(O)c21 [ANTHRALIN]?
**A.** IC50 (Genome polyprotein): > 49.8 µM (not active); IC50 [16]: > 10 µM (inactive); IC50 [17]: > 10 µM (inactive); IC50 [18]: > 100 µM (inactive)

**Q.** Which IC50 [19] does the source give for COc1ccc(OC(=O)N(CC(=O)O)Cc2ccc(OCCc3nc(-c4ccccc4)oc3C)cc2)cc1 [MURAGLITAZAR] here?
**A.** 1.54 µM (active)

**Q.** And the IC50 [20]?
**A.** 36.2 µM (inactive)
